# Source: patent publication US20260216348A1, “IRAK DEGRADATION AGENT AND USE THEREOF” (Increland, priority 2023, published 2026)
# Test system: LPS/IL-1β-induced IL-6 secretion in human peripheral blood mononuclear cells (PBMCs)
# Test: Inhibition of LPS/IL-1β-induced IL-6 secretion in human PBMCs (IL-6 ELISA)
# Type: cell-based
# Settings: PBMC, LPS 10 ng/mL + IL-1β 20 ng/mL, 24 h pre-incubation, 20 h stimulation
# Description: This experiment was carried out in RPMI 1640 medium containing 10% FBS and 1% penicillin/streptomycin, with each of the compounds at an initial test concentration of 1 μM.
# The compound was dissolved in DMSO to prepare a stock solution, which was serially diluted into some working solutions with a 5-fold concentration gradient using the culture medium and then added to a 96-well plate at 10 μL per well. PBMCs (Batch No.: P122101102C; Milecell Biotechnology Inc.) were counted and diluted to a cell concentration of about 1.3×10^6 cells/mL, and then added to the aforementioned compound-containing 96-well plate at 150 μL per well. The system was mixed well and incubated in a 5% CO2 incubator at 37° C. for 24 h. Then 5 μL of LPS (final concentration: 10 ng/mL) and 5 μL of IL-1β (final concentration: 20 ng/mL) were added to each well, respectively, and the culture was continued for 20 h in a 5% CO2 incubator at 37° C. After incubation, the 96-well plate was centrifuged at 2000 rpm for 4 min. The supernatant was collected and diluted 200-fold, then detected using an IL-6 ELISA kit. The OD450 values were read, and converted to IL-6 concentrations based on a standard curve. The dose-response curves were fitted using GraphPad 8.0 to calculate the IC50 values.
row,SMILES,IC50
1,C[C@@H]1CN(c2cc3nn([C@H]4CC[C@H](CN5CCC(n6cc7ccc(N8CCC(=O)NC8=O)cc7n6)CC5)CC4)cc3cc2NC(=O)c2cnn3cccnc23)CCO1 [TM-45],8.81 nM
2,C[C@@H]1CN(C[C@H]2CC[C@H](n3cc4cc(NC(=O)c5cnn6cccnc56)c(N(C)C)cc4n3)CC2)CC[C@H]1n1cc2ccc(N3CCC(=O)NC3=O)cc2n1 [TM-26],0.54 nM
3,CN(C)c1cc2nn([C@H]3CC[C@H](CN4CCN(c5nc6ccc(N7CCC(=O)NC7=O)cc6s5)CC4)CC3)cc2cc1NC(=O)c1cnn2cccnc12 [TM-55],1.61 nM
4,CN(C)c1cc2nn([C@H]3CC[C@H](CN4CCC(c5cc6cc(N7CCC(=O)NC7=O)ccn6n5)CC4)CC3)cc2cc1NC(=O)c1cnn2cccnc12 [TM-175],13.2 nM
5,CN(C)c1cc2nn(C3CCN(C[C@H]4CC[C@H](n5cc6ccc(N7CCC(=O)NC7=O)cc6n5)CC4)CC3)cc2cc1NC(=O)c1cnn2cccnc12 [TM-52],18.7 nM
6,CN(C)c1cc2nn(C3CCN(C[C@H]4CC[C@H](n5cc6cc(N7CCC(=O)NC7=O)ccc6n5)CC4)CC3)cc2cc1NC(=O)c1cnn2cccnc12 [TM-53],6.14 nM
7,C[C@@H]1CN(c2cc3nn([C@H]4CC[C@H](CN5CC6CN(c7nc8ccc(N9CCC(=O)NC9=O)cc8s7)CC6C5)CC4)cc3cc2NC(=O)c2cnn3cccnc23)CCO1 (some centres unmarked) [TM-62],2.48 nM
8,CN(C)c1cc2nn([C@H]3CC[C@H](CN4C[C@@H]5C[C@H]4CN5c4nc5ccc(N6CCC(=O)NC6=O)cc5s4)CC3)cc2cc1NC(=O)c1cnn2cccnc12 [TM-74],0.86 nM
9,CN(C)c1cc2nn([C@H]3CC[C@H](CN4C5CCC4CN(c4nc6ccc(N7CCC(=O)NC7=O)cc6o4)C5)CC3)cc2cc1NC(=O)c1cnn2cccnc12 [TM-146],44.1 nM
10,CN(C)c1cc2nn(C3CCC(CN4CC5CN(c6nc7ccc(N8CCC(=O)NC8=O)cc7s6)CC5C4)CC3)cc2cc1NC(=O)c1cnn2cccnc12 (centres unmarked) [TM-60],1.94 nM
11,CN(C)c1cc2nn([C@H]3CC[C@H](CN4CC5(CCN(c6nc7ccc(N8CCC(=O)NC8=O)cn7n6)CC5)C4)CC3)cc2cc1NC(=O)c1cnn2cccnc12 [TM-148],11.6 nM
12,C[C@@H]1CN(c2cc3nn([C@H]4CC[C@H](CN5CCN(c6nc7cc(N8CCC(=O)NC8=O)ccc7s6)CC5)CC4)cc3cc2NC(=O)c2cnn3cccnc23)CCO1 [TM-56],8.81 nM
13,CN(C)c1cc2nn(C3CCN(CC4CCN(c5nc6cc(N7CCC(=O)NC7=O)ccc6s5)CC4)CC3)cc2cc1NC(=O)c1cnn2cccnc12 [TM-128],36.6 nM
14,CN(C)c1cc2nn([C@H]3CC[C@H](CN4CCN(c5nc6ccc(N7CCC(=O)NC7=O)cn6n5)CC4)CC3)cc2cc1NC(=O)c1cnn2cccnc12 [TM-110],21.6 nM
15,CN(C)c1cc2nn([C@H]3CC[C@H](CN4C[C@H]5C[C@@H]4CN5c4nc5ccc(N6CCC(=O)NC6=O)cc5o4)CC3)cc2cc1NC(=O)c1cnn2cccnc12 [TM-83],44.1 nM
16,C[C@@H]1CN(c2cc3nn([C@H]4CC[C@H](CN5CC6CN(c7nc8cc(N9CCC(=O)NC9=O)ccc8s7)CC6C5)CC4)cc3cc2NC(=O)c2cnn3cccnc23)CCO1 (some centres unmarked) [TM-63],8.91 nM
17,CN(C)c1cc2nn(C3CCC(CN4CC5CN(c6nc7cc(N8CCC(=O)NC8=O)ccc7s6)CC5C4)CC3)cc2cc1NC(=O)c1cnn2cccnc12 (centres unmarked) [TM-61],1.15 nM
18,CN(C)c1cc2nn([C@H]3CC[C@H](CN4CCN(c5nc6cc(F)c(N7CCC(=O)NC7=O)cc6o5)CC4)CC3)cc2cc1NC(=O)c1cnn2cccnc12 [TM-85],8.41 nM

row,SMILES,IC50
1,C[C@@H]1CN(c2cc3nn([C@H]4CC[C@H](CN5CCC(n6cc7cc(C8CCC(=O)NC8=O)ccc7n6)CC5)CC4)cc3cc2NC(=O)c2cnn3cccnc23)CCO1 (some centres unmarked) [TM-47],3.06 nM
2,CN(C)c1cc2nn([C@H]3CC[C@H](CN4CCN(c5nc6ccc(N7CCC(=O)NC7=O)cc6o5)CC4)CC3)cc2cc1NC(=O)c1cnn2cccnc12 [TM-75],13.2 nM
3,C[C@H]1CN(C[C@H]2CC[C@H](n3cc4cc(NC(=O)c5cnn6cccnc56)c(N(C)C)cc4n3)CC2)CCN1c1nc2ccc(N3CCC(=O)NC3=O)cc2s1 [TM-66],19.6 nM
4,CN(C)c1cc2nn([C@H]3CC[C@H](CN4CCC(C5Nc6cc(N7CCC(=O)NC7=O)ccc6C5=O)CC4)CC3)cc2cc1NC(=O)c1cnn2cccnc12 (some centres unmarked) [TM-144],38.4 nM
5,O=C1CCC(c2ccc3nn(C4CCN(C[C@H]5CC[C@H](n6cc7cc(NC(=O)c8cnn9cccnc89)c(N8CCOCC8)cc7n6)CC5)CC4)cc3c2)C(=O)N1 (some centres unmarked) [TM-2],5.07 nM
6,C[C@@H]1CN(c2cc3nn([C@H]4CC[C@H](CN5CCN(c6nc7ccc(N8CCC(=O)NC8=O)cc7s6)CC5)CC4)cc3cc2NC(=O)c2cnn3cccnc23)CCO1 [TM-57],10.2 nM
7,CN(C)c1cc2nn([C@H]3CC[C@H](CN4CC5(CCN(c6nc7cc(F)c(N8CCC(=O)NC8=O)cc7o6)CC5)C4)CC3)cc2cc1NC(=O)c1cnn2cccnc12 [TM-90],1.44 nM
8,C[C@@H]1CN(c2cc3nn([C@H]4CC[C@H](CN5CCC(n6cc7cc(N8CCC(=O)NC8=O)ccc7n6)CC5)CC4)cc3cc2NC(=O)c2cnn3cccnc23)CCO1 [TM-46],7.46 nM
9,C[C@@H]1CN(c2cc3nn(C4CCN(CC5CCC(n6cc7ccc(C8CCC(=O)NC8=O)cc7n6)CC5)CC4)cc3cc2NC(=O)c2cnn3cccnc23)CCO1 (some centres unmarked) [TM-50],4.65 nM
10,C[C@@H]1CN(c2cc3nn(C4CCN(CC5CCC(n6cc7cc(C8CCC(=O)NC8=O)ccc7n6)CC5)CC4)cc3cc2NC(=O)c2cnn3cccnc23)CCO1 (some centres unmarked) [TM-49],1.33 nM
11,CN(C)c1cc2nn([C@H]3CC[C@H](CN4CCN(c5nc6cc(N7CCC(=O)NC7=O)ccc6s5)CC4)CC3)cc2cc1NC(=O)c1cnn2cccnc12 [TM-54],3.06 nM
12,CN(C)c1cc2nn([C@H]3CC[C@H](CN4CCN(c5nc6cc(N7CCC(=O)NC7=O)ccc6o5)CC4)CC3)cc2cc1NC(=O)c1cnn2cccnc12 [TM-145],2.62 nM
13,CN(C)c1cc2nn([C@H]3CC[C@H](CN4CCCN(c5nc6ccc(N7CCC(=O)NC7=O)cc6s5)CC4)CC3)cc2cc1NC(=O)c1cnn2cccnc12 [TM-150],6.94 nM
14,O=C1CCC(c2ccc3cn(C4CCN(C[C@H]5CC[C@H](n6cc7cc(NC(=O)c8cnn9cccnc89)c(N8CCOCC8)cc7n6)CC5)CC4)nc3c2)C(=O)N1 (some centres unmarked) [TM-1],5.86 nM
15,O=C1CCN(c2ccc3nn(C4CCN(C[C@H]5CC[C@H](n6cc7cc(NC(=O)c8cnn9cccnc89)c(N8CCOCC8)cc7n6)CC5)CC4)cc3c2)C(=O)N1 [TM-44],10.2 nM
16,C[C@@H]1CN(C[C@H]2CC[C@H](n3cc4cc(NC(=O)c5cnn6cccnc56)c(N(C)C)cc4n3)CC2)CCN1c1nc2ccc(N3CCC(=O)NC3=O)cc2s1 [TM-65],2.26 nM
17,C[C@@H]1CN(c2cc3nn([C@H]4CC[C@H](CN5CCC(n6cc7ccc(C8CCC(=O)NC8=O)cc7n6)CC5)CC4)cc3cc2NC(=O)c2cnn3cccnc23)CCO1 (some centres unmarked) [TM-48],1.61 nM

# Molecular target: T1, IRAK4 (Homo sapiens, UniProt Q9NWZ3)
# T1 construct: Effect of the Compounds on IRAK4 Protein Degradation in THP1 Cells; endogenous in cells; host or cells: THP-1 cells
# T1 sequence (Q9NWZ3 1-460): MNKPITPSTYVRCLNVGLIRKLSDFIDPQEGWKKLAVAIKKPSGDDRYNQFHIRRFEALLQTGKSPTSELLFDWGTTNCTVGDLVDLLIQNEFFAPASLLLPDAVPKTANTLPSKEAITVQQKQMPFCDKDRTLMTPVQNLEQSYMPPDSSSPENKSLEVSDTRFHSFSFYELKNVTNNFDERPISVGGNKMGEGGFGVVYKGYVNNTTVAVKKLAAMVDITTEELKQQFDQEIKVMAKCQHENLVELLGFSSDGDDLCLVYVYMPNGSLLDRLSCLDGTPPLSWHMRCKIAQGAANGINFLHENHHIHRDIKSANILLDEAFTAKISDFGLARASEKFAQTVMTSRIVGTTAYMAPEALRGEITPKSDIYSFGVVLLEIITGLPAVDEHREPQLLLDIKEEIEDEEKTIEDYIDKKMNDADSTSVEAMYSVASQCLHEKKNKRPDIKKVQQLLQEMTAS
# Test: IRAK4 protein degradation in THP1 cells (Western blot)
# Type: cell-based
# Settings: THP-1 cells, 24 h
# Description: THP-1 cells were seeded into a 96-well cell culture plate, with 2×10^5 cells and 90 μL of culture medium per well. The cell culture plate was cultured in an incubator with 5% CO2 at 37° C. overnight. The compound was dissolved in DMSO to prepare a stock solution, which was serially diluted into a series of working solutions with a 5-fold concentration gradient using the culture medium and then added to the aforementioned 96-well plate at 10 μL per well. The cell culture plate was further incubated for 24 h in a 5% CO2 incubator at 37° C. After incubation, the 96-well plate was centrifuged and the supernatant was discarded, followed by adding 40 μL of cell lysis buffer containing […]/phosphatase inhibitors to each well for sufficient lysis on an ice bath. Protein quantification was performed using the BCA protein quantification kit, followed by the preparation of Western blot samples. […] After electrophoresis, protein transfer was performed using a PVDF membrane under ice bath conditions for 1 h. After the transfer was completed, the PVDF membrane was blocked with gentle shaking in 5% skim milk at room temperature for 1 h. After blocking, the PVDF membrane was incubated with the primary antibody overnight with gentle shaking at 4° C. The PVDF membrane was washed 3 times with TBST, then the secondary antibody was added and incubated for 1 h with gentle shaking at room temperature, followed by washing of the PVDF membrane with TBST for 3 times. After the washes were completed, the chemiluminescent substrate was added; the PVDF membrane was scanned using a Clinx imager, semi-quantitative analysis was performed with ImageJ software, and the DC50 was calculated using GraphPad Prism 8.0.
row,SMILES,DC50
1,CN(C)c1cc2nn([C@H]3CC[C@H](CN4CC[C@H](F)[C@@H](n5cc6ccc(N7CCC(=O)NC7=O)cc6n5)C4)CC3)cc2cc1NC(=O)c1cnn2cccnc12 [TM-213],1.74 nM
2,CN(C)c1cc2nn([C@H]3CC[C@H](CN4C[C@@H](F)[C@H](n5cc6ccc(N7CCC(=O)NC7=O)cc6n5)C4)CC3)cc2cc1NC(=O)c1cnn2cccnc12 [TM-200],1.79 nM
3,CN(C)c1cc2nn([C@H]3CC[C@H](CN4CC[C@H](n5cc6cc(C7CCC(=O)NC7=O)ccc6n5)[C@@H](F)C4)CC3)cc2cc1NC(=O)c1cnn2cccnc12 (some centres unmarked) [TM-168],1.78 nM
